Test results published in patent publication US20210315960A1, “COMPOSITIONS OF AZADIRACHTA INDICA AND METHODS OF TREATING CANCER” (Board of Regents, The University of Texas System, priority 2018, published 2021).

Test system: SCC4, HSC3, Cal27 OSCC cell lines
Assay: MTT assay, human OSCC cell lines
Type: cell-based
Conditions: 8 h and 24 h treatments, read-out: IC50 (cell growth)
Method: SCC4 and Cal27 oral cancer cells are obtained from ATCC and maintained in DMEM supplemented with 10% fetal bovine serum and 1% penicillin/streptomycin at 37° C. with 5% CO2. For the SCC4 cells, hydrocortisone was provided at 400 ng/ml in the completed media. […] Doses to be tested will bracket the IC50s for each cell line. Control cells will receive DMSO. […] Subsequently, 10 μl of 12 mM MTT (Life Technologies; Carlsbad, Calif.) solution was added to each well, incubated for 4 hr at 37° C., and neutralized with DMSO. Absorbance was measured at 540 nm and percent viability was calculated.

SMILES: Cc1ccc(-c2cc(C(F)(F)F)nn2-c2ccc(S(N)(=O)=O)cc2)cc1 [Celecoxib]
- IC50: 75 µM
